The source of these data is ChEMBL document CHEMBL1201862, “PubChem BioAssay data set” (2004).

Molecules are shown by their SMILES. “And” between values parts separate entries of the source, which are not always exact repeats. Identical values can stand only once.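 Cells were grown in 96-well plates and exposed to each compound for 48 hours at five concentrations; endpoints were interpolated linearly between bracketing concentrations, or set to the highest concentration if not reached. The concentration for 50% growth inhibition is given as GI50.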 The source made the active and inactive calls. Cut-off read from the data, not from the text of the source: active = GI50 up to about 1.1 µM and inactive = higher.

Holding throughout (experiment): DTP human tumour cell line panel, 48 h
Experiment [1] concerns A549.
The subject of experiment [2] is CCRF-CEM.
Experiment [3] deals with EKVX.
The subject of experiment [4] is HL-60.
Experiment [5] has as its system M14.
Experiment [6] deals with MDA-MB-231.
In experiment [7] the test system is MDA-N.
For experiment [8], the system named is MOLT-4.
For experiment [9], the system named is NCI-H23.
Experiment [10] relates to OVCAR-5.
In experiment [11] the test system is SF-539.
Experiment [12] deals with SK-MEL-2.
Experiment [13] concerns SK-MEL-5.
Experiment [14] deals with SNB-19.
Experiment [15] relates to SNB-75.
Experiment [16] has as its system SR.
Experiment [17] concerns SW-620.
For experiment [18], the system named is T47D.
In experiment [19] the test system is UACC-62.

Turning to `CC[C@H](C)c1occ2c(O)c(C(=O)O)c(=O)cc-2c1C`, the GI50 (in general, the concentration that inhibits growth by half) was 30 µM (inactive) in experiment [1]; 17.5 µM (inactive) in [2]; 30.8 µM (inactive) in [3]; 12.7 µM (inactive) in experiment [4]; 31.5 µM (inactive) in experiment [5]; 23 µM (inactive) in [6]. Besides, the GI50 in experiment [7] was 24 µM (inactive); in [8], 19.8 µM (inactive); in experiment [9], 21.4 µM (inactive); in experiment [10] it was 19.5 µM (inactive); in [11], 20.7 µM (inactive); in [12] it was 17.3 µM (inactive). Also, the GI50 in [13] was 18.3 µM (inactive); in experiment [14], 31.7 µM (inactive); in [15], 55.6 µM (inactive); in [16], 21.9 µM (inactive); in [17] it was 20.4 µM (inactive); in experiment [18], 20.7 µM (inactive). Also, in experiment [19], the GI50 was 17.3 µM (inactive).
On to `Cc1nc(=O)[nH]c(NCCNCCO)c1C(=O)Nc1cccc2cc3ccccc3cc12`, for which the GI50 in experiment [1], in [2], in experiment [3], in experiment [4], in [5] and in [6] was > 100 µM (inactive) in each case. The GI50 in [7], in [8], in experiment [9], in [10], in experiment [11] and in [12] was > 100 µM (inactive) each time. Moreover, the GI50 in experiment [13], in [14], in experiment [15], in experiment [16], in [17] and in experiment [18] was > 100 µM (inactive) in each case. Also, the GI50 in experiment [19] was > 100 µM (inactive).
With `O=C1N[C@H]2c3c(Cl)sc(Cl)c3C(=O)[C@H]2O1`, the GI50 in [1] was 36.8 µM (inactive); in experiment [2], 2.58 µM (inactive); in [3], 12.3 µM (inactive); in experiment [4], 1.79 µM (inactive); in [5], 9.82 µM (inactive); in experiment [6], 25.6 µM (inactive). The GI50 was 24 µM (inactive) in [7]; 2.01 µM (inactive) in experiment [8]; 10.5 µM (inactive) in experiment [9]; 22.1 µM (inactive) in [10]; 9.68 µM (inactive) in [11]; 24 µM (inactive) in experiment [12]. The GI50 in experiment [13] was 24 µM (inactive); in [14], 20.6 µM (inactive); in experiment [15], 19.1 µM (inactive); in [16], 2.09 µM (inactive); in experiment [17], 2.84 µM (inactive); in experiment [18], 31.6 µM (inactive). For the same compound, the GI50 in experiment [19] is 19.1 µM (inactive).
As to `CCCc1nnc2sc(COc3cc(Cl)c(OCc4nn5c(CCC)nnc5s4)cc3Cl)nn12`, the GI50 in [1] is 35.2 µM (inactive); in experiment [2] it was 15.6 µM (inactive); in experiment [3], 22.6 µM (inactive); in experiment [4], 25.6 µM (inactive); in [5], 44.7 µM (inactive); in experiment [6], 47.1 µM (inactive). The GI50 in experiment [7] was 37.6 µM (inactive); in experiment [8], 0.4 µM (active); in experiment [9] it was 0.748 µM (active); in experiment [10], > 100 µM (inactive); in [11], 47.8 µM (inactive); in experiment [12] it was > 100 µM (inactive). Further, the GI50 in experiment [13] was 12.3 µM (inactive); in [14], 31.5 µM (inactive); in [15], 21.7 µM (inactive); in experiment [16] it was 0.046 µM (active); in experiment [17], > 100 µM (inactive); in [18] it was 15.2 µM (inactive). Also, in experiment [19], the GI50 is 24.2 µM (inactive).
`O=C(Nc1ccccc1)c1cc(S(=O)(=O)N2CCNC2=O)c(S)cc1Cl`: the GI50 in experiment [1], in experiment [2], in [3], in experiment [4], in experiment [5] and in experiment [6] was > 100 µM (inactive) in each case. Moreover, the GI50 in experiment [7], in [8], in [9], in experiment [10], in experiment [11] and in experiment [12] was > 100 µM (inactive) each time. In addition, the GI50 in experiment [13], in experiment [14], in experiment [15], in [16], in experiment [17] and in experiment [18] was > 100 µM (inactive) each time. Besides, in experiment [19], the GI50 is > 100 µM (inactive).
For `NC(CCC(=O)NC(CSCC1C(=O)Nc2ccccc21)C(=O)NCC(=O)O)C(=O)O` (stereo not given), the GI50 was 7.43 µM (inactive) in experiment [1]; 5.27 µM (inactive) in [2]; 11.9 µM (inactive) in experiment [3]; 23.6 µM (inactive) in [4]; 5.21 µM (inactive) in experiment [5]; 7.53 µM (inactive) in experiment [6]. In addition, the GI50 is 6.37 µM (inactive) in experiment [7]; 5.35 µM (inactive) in experiment [8]; 5.41 µM (inactive) in experiment [9]; 12.4 µM (inactive) in experiment [10]; 6 µM (inactive) in experiment [11]; 9.53 µM (inactive) in experiment [12]. Moreover, the GI50 was 14.8 µM (inactive) in experiment [13]; 44.3 µM (inactive) in [14]; 2.67 µM (inactive) in [15]; 0.386 µM (active) in [16]; 4.28 µM (inactive) in [17]; 9.4 µM (inactive) in experiment [18]. Also, the GI50 in experiment [19] is 8.32 µM (inactive).
As for `COc1ccc(C2c3cc4c(cc3OC(NNc3ccccc3)C2C)OCO4)cc1` (stereo not given), the GI50 is 4.09 µM (inactive) in experiment [1]; 4.01 µM (inactive) in experiment [2]; 3.75 µM (inactive) in experiment [3]; 5.25 µM (inactive) in experiment [4]; 6.14 µM (inactive) in [5]; 23.2 µM (inactive) in [6]. The GI50 in experiment [7] was 8.71 µM (inactive); in experiment [8] it was 3.15 µM (inactive); in experiment [9], 13.4 µM (inactive); in experiment [10], 7.33 µM (inactive); in experiment [11], 2.36 µM (inactive); in experiment [12] it was 21.7 µM (inactive). Moreover, the GI50 in experiment [13] is 17.9 µM (inactive); in experiment [14], 40.7 µM (inactive); in experiment [15] it was 22.6 µM (inactive); in experiment [16] it was 1.71 µM (inactive); in experiment [17] it was 21.7 µM (inactive); in [18], 6.12 µM (inactive). The GI50 in experiment [19] is 4.92 µM (inactive).
For the compound `CCCCNC(=O)OCCN=c1c2ccccc2ccc2ccccc12`, the GI50 in experiment [1], in experiment [2], in experiment [3], in experiment [4], in experiment [5] and in [6] was > 100 µM (inactive) throughout. Also, the GI50 in experiment [7], in [8], in experiment [9], in [10], in experiment [11] and in experiment [12] was > 100 µM (inactive) in each case. Also, the GI50 in [13] was > 100 µM (inactive); in [14], > 100 µM (inactive); in experiment [15] it was > 100 µM (inactive); in experiment [16], > 100 µM (inactive); in experiment [17], > 100 µM (inactive); in experiment [18], 75 µM (inactive). Further, the GI50 in experiment [19] is > 100 µM (inactive).
As for `COc1ccc(-c2c(C#N)c(N)n(C3OC(CO)C(O)C(O)C3O)c(=S)c2C#N)cc1` (stereo not given), the GI50 was > 100 µM (inactive) in experiment [1]; > 100 µM (inactive) in experiment [2]; 66.2 µM (inactive) in experiment [3]; > 100 µM (inactive) in [4]; > 100 µM (inactive) in experiment [5]; > 100 µM (inactive) in experiment [6]. The GI50 in experiment [7] was > 100 µM (inactive); in experiment [8], > 100 µM (inactive) and 68.2 µM (inactive); in [9] it was > 100 µM (inactive); in experiment [10] it was > 100 µM (inactive); in [11] it was > 100 µM (inactive); in experiment [12] it was 55.8 µM (inactive) and 30.4 µM (inactive). The GI50 in [13] is > 100 µM (inactive) and 74 µM (inactive); in [14], > 100 µM (inactive); in experiment [15], > 100 µM (inactive); in experiment [16], > 100 µM (inactive); in experiment [17], > 100 µM (inactive) and 73.1 µM (inactive); in experiment [18], > 100 µM (inactive) and 93.3 µM (inactive). For the same compound, in [19], the GI50 was > 100 µM (inactive).
Take `Cc1cc(=O)oc2c(CN3CCCCC3)c(O)ccc12`: the GI50 in experiment [1], in [2], in [3], in experiment [4], in [5] and in experiment [6] was > 100 µM (inactive) each time. Also, the GI50 in experiment [7], in [8], in experiment [9], in experiment [10], in experiment [11] and in experiment [12] was > 100 µM (inactive) throughout. The GI50 in experiment [13], in experiment [14], in experiment [15], in [16], in experiment [17] and in experiment [18] was > 100 µM (inactive) throughout. In experiment [19], the GI50 was > 100 µM (inactive).
